The text below walks through data of patent US10005744B2, “Compounds for the treatment or prevention of breast cancer” (JIANGSU ATOM BIOSCIENCE AND PHARMACEUTICAL CO., LTD., priority 2015, dated 2018).

Structures are written as SMILES. Like-named read-outs stand apart in the source and are kept apart here.

Holding throughout (assay type): cell-based
For test [1], the system named is human lung cancer cells H1299. The experiment in a line: Growth inhibition of human lung cancer cells H1299. As for the experimental part:
(§1) 1. Breast cancer cells MCF-7 (Luminal type cells) and MDA-MB-468 (basal-like cells, which are of the triple-negative type without epithelial-mesenchymal transition) were purchased from Cell Resource Center of Shanghai Institutes for Biological Sciences of the Chinese Academy of Sciences, and cultured with DMEM culture medium(containing 10% of fetal bovine serum, 10 U/mL of penicillin and 0.1 mg/mL of streptomycin) in a 5% CO2 incubator at 37[…] until the cell density was about 90%.
(§2) 2. The cells were inoculated to a 96-well plate at a cell population of 3×10^3/well and then cultured in the 5% CO2 incubator for 24 h at 37[…].
(§3) 3. Tested compounds of different concentration gradients were prepared by using the DMEM culture medium, and added into wells at 100 μL/well as tested compounds wells; and, the DMEM culture liquid was added into wells at 100 μL/well as negative control wells. At 37[…] and in the 5% CO2 incubator, the MCF-7 cells were cultured for 120 h, and MDA-MB-468 cells were cultured for 72 h.
(§4) 4. Resazurin (15 mg/50 mL), Methylene Blue (25 mg/10 mL), Potassium ferricyanide (0.329 g/100 mL) and Potassium ferrocyanide (0.422 g/100 mL) were dissolved into PBS (0.1 M, pH=7.4) to obtain Alamar Blue solution for standby.
(§5) 5. The cells were washed with PBS (0.1 M, pH=7.4) for two times, and the Alamar Blue solution was added into wells at 100 μL/well; and 100 μL of Alamar Blue solution was added into wells without cells to serve as blank control cells. The 96-well plate was placed into the 5% CO2 incubator at 37[…] and cultured for 3 h.
(§6) 6. The fluorescence value of the cells was detected at 530/590 nm by ELIASA Victor X4 (Perkin Elmer). The fluorescence value at each concentration was repetitively measured for 4 times to obtain an average value and a standard deviation. The cell viability was calculated by the following formula[User2]: […]
(§7) 7. The half inhibitory concentration (IC50) of the tested compounds againstt he cell lines was obtained according to the cell viability by Prism Graph software.
(§8) Growth inhibition tests of the tested compounds 7, 17, 18, 34, 35 and 41 on the human lung cancer cells H1299, human colon cancer cells HT29, human liver cancer cells SK-HEP-1, human colon cancer cells HCT116, human normal liver cells L-02 and WRL-68 were conducted, and the method refers to Embodiment 19 “Inhibition effects of the compounds on the growth of breast cancer cells MCF-7 and MDA-MB-468”.

Test [2] relates to MCF-7. Put plainly: Growth inhibition of breast cancer cell line MCF-7 (Alamar Blue). Particulars: Homo sapiens; for IC50: read-out: Half inhibitory concentration (IC50) against MCF-7. Here is the method: as §1, §2, §3, §4, §5, §6, §7
In general terms: Alamar Blue is a resazurin reagent that responds to reducing activity.

In test [3] the test system is human normal liver cells L-02. The experiment in a line: Growth inhibition of human normal liver cells L-02. Here is the method: as §1, §2, §3, §4, §5, §6, §7, §8
Test [4] has as its system human colon cancer cells HCT116. The experiment in a line: Growth inhibition of human colon cancer cells HCT116. Here is the method: as §1, §2, §3, §4, §5, §6, §7, §8
The test system of test [5] is human liver cancer cells SK-HEP-1. Put plainly: Growth inhibition of human liver cancer cells SK-HEP-1. Here is the method: as §1, §2, §3, §4, §5, §6, §7, §8
Test [6] concerns human colon cancer cells HT29. Put plainly: Growth inhibition of human colon cancer cells HT29. Here is the method: as §1, §2, §3, §4, §5, §6, §7, §8
For test [7], the system named is human normal liver cells WRL-68. The experiment in a line: Growth inhibition of human normal liver cells WRL-68. Here is the method: as §1, §2, §3, §4, §5, §6, §7, §8
For test [8], the system named is MDA-MB-468. Put plainly: Growth inhibition of breast cancer cell line MDA-MB-468 (Alamar Blue). The following applies: Homo sapiens, read-out: Half inhibitory concentration (IC50) against MDA-MB-468. Here is the method: as §1, §2, §3, §4, §5, §6, §7
Where [9] appears, read: NCI-H1299, read-out: half inhibitory concentration (IC50).
Where [10] appears, read: L02, read-out: half inhibitory concentration (IC50).
Setting [11] is: HCT-116, read-out: half inhibitory concentration (IC50).
Setting [12] is: SK-HEP1, read-out: half inhibitory concentration (IC50).
Setting [13] is: HT-29, read-out: half inhibitory concentration (IC50).
Setting [14] is: WRL68, read-out: half inhibitory concentration (IC50).

For the compound `Nc1ccc(-c2nc3ccccc3[se]2)cc1Br` [Compound 7, 4-(benzoselenazole-2-yl)-2-bromoaniline], the IC50 in test [1] (setting [9]) was more than 10 µM; in test [2] (MCF7, 120 h), 0.0567 µM; in test [3] (setting [10]), more than 10 µM; in test [4] (setting [11]) it was more than 10 µM; in test [5] (setting [12]), more than 10 µM; in test [6] (setting [13]), more than 10 µM. The IC50 in test [7] (setting [14]) is more than 10 µM; in test [8] (MDA-MB-468, 72 h), 0.0741 µM.

For the compound `Nc1ccc(-c2nc3cc(F)ccc3[se]2)cc1Br` [Compound 14, 2-bromo-4-(5-fluorobenzoselenazole-2-yl)aniline], the IC50 in test [2] (MCF7, 120 h) amounted to 0.188 µM; in test [8] (MDA-MB-468, 72 h), 0.138 µM.

Turning to `Cc1cc(-c2nc3cc(F)ccc3[se]2)ccc1N` [Compound 17, 4-(5-fluorobenzoselenazole-2-yl)-2-methylaniline], the IC50 in test [1] (setting [9]) was more than 10 µM; in test [2] (MCF7, 120 h), 0.0728 µM; in test [3] (setting [10]), more than 10 µM; in test [4] (setting [11]), more than 10 µM; in test [5] (setting [12]), more than 10 µM; in test [6] (setting [13]), more than 10 µM. In addition, the IC50 was more than 10 µM in test [7] (setting [14]) and 0.0585 µM in test [8] (MDA-MB-468, 72 h).

Consider `Cc1cc(-c2nc3cc(F)ccc3[se]2)cc(Br)c1N` [Compound 18, 2-bromo-4-(5-fluorobenzoselenazole-2-yl)-6-methylaniline], for which the IC50 was more than 10 µM in test [1] (setting [9]); 0.0919 µM in test [2] (MCF7, 120 h); more than 10 µM in test [3] (setting [10]); more than 10 µM in test [4] (setting [11]); more than 10 µM in test [5] (setting [12]); more than 10 µM in test [6] (setting [13]). The IC50 in test [7] (setting [14]) is more than 10 µM; in test [8] (MDA-MB-468, 72 h), 0.0709 µM.

Regarding `Cc1ccc2[se]c(-c3ccc(N)c(C)c3)nc2c1` [Compound 26, 2-methyl-4-(5-methylbenzoselenazole-2-yl)aniline], in test [2] (MCF7, 120 h), the IC50 was found to be 0.134 µM.

As to `Nc1ccc(-c2nc3cc(F)ccc3[se]2)cc1F` [Compound 34, 2-fluoro-4-(5-fluorobenzoselenazole-2-yl)aniline], the IC50 is more than 10 µM in test [1] (setting [9]); 0.0524 µM in test [2] (MCF7, 120 h); more than 10 µM in test [3] (setting [10]); more than 10 µM in test [4] (setting [11]); more than 10 µM in test [5] (setting [12]); more than 10 µM in test [6] (setting [13]). In addition, the IC50 is more than 10 µM in test [7] (setting [14]) and 0.0291 µM in test [8] (MDA-MB-468, 72 h).

As for `Nc1c(F)cc(-c2nc3cc(F)ccc3[se]2)cc1Br` [Compound 35, 2-bromo-6-fluoro-4-(5-fluorobenzoselenazole-2-yl)aniline], the IC50 in test [1] (setting [9]) was more than 10 µM; in test [2] (MCF7, 120 h), 0.0416 µM; in test [3] (setting [10]), more than 10 µM; in test [4] (setting [11]), more than 10 µM; in test [5] (setting [12]), more than 10 µM; in test [6] (setting [13]) it was more than 10 µM. The IC50 in test [7] (setting [14]) was more than 10 µM; in test [8] (MDA-MB-468, 72 h) it was 0.0397 µM.

For the compound `Cc1ccc(-c2nc3cc(F)ccc3[se]2)cc1N` [Compound 37, 5-(5-fluorobenzoselenazole-2-yl)-2-methylaniline], the IC50 in test [2] (MCF7, 120 h) stood at 0.45 µM; in test [8] (MDA-MB-468, 72 h), 0.114 µM.

In the case of `Nc1c(F)cc(-c2nc3cc(F)ccc3[se]2)cc1F` [Compound 41, 2,6-difluoro-4-(5-fluorobenzoselenazole-2-yl)aniline], the IC50 in test [1] (setting [9]) was more than 10 µM; in test [2] (MCF7, 120 h) it was 0.0568 µM; in test [3] (setting [10]) it was more than 10 µM; in test [4] (setting [11]), more than 10 µM; in test [5] (setting [12]), more than 10 µM; in test [6] (setting [13]), more than 10 µM. Moreover, the IC50 was more than 10 µM in test [7] (setting [14]) and 0.0201 µM in test [8] (MDA-MB-468, 72 h).

Consider `CC(=O)O[C@H]1C(=O)[C@@]2(C)[C@H]([C@H](OC(=O)c3ccccc3)[C@]3(O)C[C@H](OC(=O)[C@H](O)[C@@H](NC(=O)c4ccccc4)c4ccccc4)C(C)=C1C3(C)C)[C@]1(OC(C)=O)CO[C@@H]1C[C@@H]2O` [Paclitaxel, paclitaxel, reference compound], for which the IC50 in test [1] (NCI-H1299, H1299 cells, range stated over the six cell lines, read-out: half inhibitory concentration (IC50)) was 0.00159 to 0.0153 µM; in test [2] (MCF7, MCF-7 cells cultured 120 h with compound, Alamar Blue) it was 0.0046 µM; in test [3] (L02, L-02 cells, range stated over the six cell lines, read-out: half inhibitory concentration (IC50)), 0.00159 to 0.0153 µM; in test [4] (HCT-116, HCT116 cells, range stated over the six cell lines, read-out: half inhibitory concentration (IC50)) it was 0.00159 to 0.0153 µM; in test [5] (SK-HEP1, SK-HEP-1 cells, range stated over the six cell lines, read-out: half inhibitory concentration (IC50)), 0.00159 to 0.0153 µM; in test [6] (HT-29, HT29 cells, range stated over the six cell lines, read-out: half inhibitory concentration (IC50)) it was 0.00159 to 0.0153 µM. In addition, the IC50 in test [7] (WRL68, WRL-68 cells, range stated over the six cell lines, read-out: half inhibitory concentration (IC50)) was 0.00159 to 0.0153 µM; in test [8] (MDA-MB-468 cells cultured 72 h with compound, Alamar Blue), 0.00443 µM. Besides, the inhibition at 0.5 µM in test [2] (MCF7, highest concentration, 500 nM, read-out: inhibition rate to MCF-7 cell line) was 70%.

By inhibition is commonly meant the drop in the measured response relative to a control, in per cent.
